ChEMBL document CHEMBL1909496, “Malabaricone C from Myristica cinnamomea exhibits anti-quorum sensing activity” (J Nat Prod, 2011)
The source made the active and inactive calls. The calls are words filed in the database; no cut-off is given here.

Key:
[1] = test system: Pseudomonas aeruginosa PAO1; assay: Inhibition of Pseudomonas aeruginosa PAO1 quorum sensing assessed as reduction of biofilm formation at 2 mg/ml after 18 hrs using crystal violet staining
[2] = test system: Pseudomonas aeruginosa PAO1; assay: Inhibition of Pseudomonas aeruginosa PAO1 quorum sensing assessed as reduction of biofilm formation at 3 mg/ml after 18 hrs using crystal violet staining
[3] = test system: Pseudomonas aeruginosa PAO1; assay: Inhibition of Pseudomonas aeruginosa PAO1 quorum sensing assessed as reduction of biofilm formation at 1 mg/ml after 18 hrs using crystal violet staining
[4] = test system: Chromobacterium violaceum; assay: Inhibition of Chromobacterium violaceum CV026 quorum sensing assessed as N-3-oxohexanoyl-homoserine lactone-induced violacein production at 3 mg/ml relative to control
[5] = test system: Pseudomonas aeruginosa PAO1; assay: Inhibition of LuxR-dependent quorum sensing in Pseudomonas aeruginosa PAO1 assessed as inhibition of autoinducer production
[6] = test system: Pseudomonas aeruginosa PAO1; assay: Inhibition of Pseudomonas aeruginosa PAO1 quorum sensing assessed as inhibition of pycocyanin production at >/= 0.1 mg/ml after overnight incubation
Pseudomonas aeruginosa = assay: Toxicity in Pseudomonas aeruginosa PAO1 quorum sensing assessed as cell viability; format: organism-based

SMILES | inhibition [1] | inhibition [2] | inhibition [3] | inhibition [4] | inhibition [5] | inhibition [6] | Activity (Pseudomonas aeruginosa)
Oc1cc(O)c2c(c1)O[C@H](c1ccc(O)c(O)c1)[C@@H](O)C2 | Active | Active | Active | – | – | – | –
O=C(CCCCCCCCc1ccc(O)c(O)c1)c1c(O)cccc1O [MALABARICONE C] | 63% | 69.4% | 44.9% | Active | inactive | Active | Non-toxic
